Assay results published in patent US20030148991A1, “Combination of lipoic acid and c1 donors for the treatment of disorders of the central nervous system” (priority 2000, published 2003).

Assays:
whole brain membranes = experiment: Measurement of membrane fluidity (DPH fluorescence anisotropy); parameters: species or system NMRI mice; conditions: whole brain membranes from old (22 months) mice; 1, 10, 100 μmol/l and 1 mmol/l; 37° C.; FIGS. 1 and 2
Method: The fluidity of whole brain membranes (without cerebellum, medella oblongata and brain stem) from young (3 months) and old (22 months) NMRI mice was determined by fluorescence spectroscopy.
Mouse whole brain membranes were prepared by a modification of the method of Cohnen and Müller, 1993. The deep-frozen hemispheres were, after weighing, transferred into 15 ml of ice-cold buffer IV (Tris-HCl buffer 5 mmol/l; pH 7.4), homogenized using a homogenizer (Potter, glass homogenizer with Teflon pestle, from Braun) at about 1 100 rpm by moving the Teflon pestle up and down about ten times, and transferred into centrifuged tubes (PP30 ml, from Schubert). […]
Membrane fluidity can be measured inter alia by fluorescence spectroscopic methods. In fluorescence polarization spectroscopy, a membrane-bound fluorescent dye is brought to an excited energy state by polarized light of a particular wavelength. […] Membrane fluidity is therefore also indicated as fluorescence anisotropy besides the fluorescence polarization. The anisotropy is in this case calculated from the measured polarization.
The fluorescent dye diphenylhexatriene (DPH) was used for this purpose. […] This process is measured as anisotropy. […]

brain cells = experiment: Measurement of the production of free radicals (DHR 123 fluorescence); type: cell-based; conditions: 100 and 500 μmol/l, time-dependent, compared with control, FIGS. 3 and 4
Method: Oxidative stress or the production of free radicals was measured using the fluorescence dye dihydrorhodamine (DHR 123). Brain cells were enriched by incubation with DHR 123 in a waterbath at 37° C. for 15 minutes. DHR is then located in particualr in the mitochondria and fluoresces after oxidation by free radicals. Fluorescence was measured at an excitation wavelength of 500 nm and an emission wavelength of 536 nm. The generation of free radicals was then measured in the absence (control) and presence of lipoic acid at various concentrations (100 and 500 μmol/l).

## O=C(O)CCCCC1CCSS1 (centres unmarked) [lipoic acid, 5-(1,2-dithiolan-3-yl)valeric acid]
Whole brain membranes
  DPH anisotropy (membrane fluidity): reduce the anisotropy in membranes from old mice
Brain cells
  generation of free radicals (increase in DHR 123 fluorescence): counteracts the generation of free radicals
